Inconclusive results and toxic doses are left out. Rule as the data show it: active = T/C of 150% or more; inactive = T/C below 125%.
Tested on: L1210 leukemia ip in BDF1 mice, survival T/C
Assay: NCI In Vivo Anticancer Drug Screen. Data for tumor model L1210 Leukemia (intraperitoneal) in B6D2F1 (BDF1) mice
Conditions: endpoint: mean survival time, higher = longer survival
Summary of the method: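 Antitumor effect is assessed in tumor-bearing animals. Survival in the compound arm is compared with a vehicle-dosed control arm and expressed as their quotient.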

[1] = dose: 100.0 mg/kg/injection, schedule: Q01DX001 (ip), vehicle: carboxymethylcellulose (CMC)
[2] = dose: 200.0 mg/kg/injection, schedule: Q01DX001 (ip), vehicle: carboxymethylcellulose (CMC)
[3] = dose: 400.0 mg/kg/injection, schedule: Q01DX001 (ip), vehicle: carboxymethylcellulose (CMC)
[4] = dose: 100.0 mg/kg/injection, schedule: Q04DX002 (ip), vehicle: gum acacia
[5] = dose: 200.0 mg/kg/injection, schedule: Q04DX002 (ip), vehicle: gum acacia
[6] = dose: 400.0 mg/kg/injection, schedule: Q04DX002 (ip), vehicle: gum acacia
[7] = dose: 100.0 mg/kg/injection, schedule: Q04DX002 (ip), vehicle: Klucel (hydroxypropylcellulose) (HPC)
[8] = dose: 200.0 mg/kg/injection, schedule: Q04DX002 (ip), vehicle: Klucel (hydroxypropylcellulose) (HPC)
[9] = dose: 400.0 mg/kg/injection, schedule: Q04DX002 (ip), vehicle: Klucel (hydroxypropylcellulose) (HPC)

Measured: T/C

O=C1CCCC2CCCC12 (stereo not given)
inactive: [1] 93 % of control | [2] 95 % of control | [3] 93 % of control

Cc1ccc(Nc2c3ccccc3nc3ccccc23)c(C)c1
inactive: dose: 100.0 mg/kg/injection, schedule: Q04DX003 (ip), vehicle: Klucel (hydroxypropylcellulose) (HPC) 96 % of control | dose: 200.0 mg/kg/injection, schedule: Q04DX003 (ip), vehicle: Klucel (hydroxypropylcellulose) (HPC) 100 % of control

CN=C(c1ccc(NC(=O)c2ccc(C(=O)Nc3ccc(C(=NC)N(C)c4ccccc4)cc3)cc2)cc1)N(C)c1ccccc1
inactive: dose: 0.94 mg/kg/injection, schedule: Q01DX Z (ip), vehicle: saline 106 % of control | dose: 1.88 mg/kg/injection, schedule: Q01DX Z (ip), vehicle: saline 104 % of control | dose: 3.75 mg/kg/injection, schedule: Q01DX Z (ip), vehicle: saline 90 % of control

CCOc1ccc(NC(N)=O)cc1
inactive: [4] 107 % of control | [5] 95 % of control | [6] 100 % of control

NC(=O)NNC(O)(C(F)(F)F)C(F)(F)F
inactive: [1] 103 % of control | [2] 108 % of control

CC(=O)OC(C)(C)Cc1ccccc1
inactive: dose: 100.0 mg/kg/injection, schedule: Q01DX009 (ip), vehicle: saline with Tween-80 90 % of control | dose: 200.0 mg/kg/injection, schedule: Q01DX009 (ip), vehicle: saline with Tween-80 108 % of control

CC(C)(C)C(=O)NO
inactive: [7] 110 % of control | [8] 90 % of control | [9] 102 % of control

CCCCCCCC(=O)NN
inactive: dose: 25.0 mg/kg/injection, schedule: Q01DX009 (ip), vehicle: other 104 % of control | dose: 50.0 mg/kg/injection, schedule: Q01DX009 (ip), vehicle: carboxymethylcellulose (CMC) 89 % of control | dose: 50.0 mg/kg/injection, schedule: Q01DX009 (ip), vehicle: other 93 % of control | [1] 117 % of control | dose: 100.0 mg/kg/injection, schedule: Q01DX009 (ip), vehicle: carboxymethylcellulose (CMC) 86 % of control | dose: 100.0 mg/kg/injection, schedule: Q01DX009 (ip), vehicle: other 98 % of control | [2] 97 % of control | dose: 200.0 mg/kg/injection, schedule: Q01DX009 (ip), vehicle: other 107 % of control | [3] 95 % of control | dose: 400.0 mg/kg/injection, schedule: Q01DX009 (ip), vehicle: other 98 % of control

O=C(COc1cc(Cl)c(Cl)cc1Cl)OC(=O)COc1cc(Cl)c(Cl)cc1Cl
inactive: [7] 107 % of control | [8] 96 % of control

NC(=O)Nc1ccc2c(c1)Cc1cc([N+](=O)[O-])ccc1-2
inactive: [1] 100 % of control | [2] 105 % of control | [3] 91 % of control

CCOC(=O)CC(N)=O
inactive: dose: 100.0 mg/kg/injection, schedule: Q04DX002 (ip), vehicle: saline 111 % of control | dose: 200.0 mg/kg/injection, schedule: Q04DX002 (ip), vehicle: saline 96 % of control | dose: 400.0 mg/kg/injection, schedule: Q04DX002 (ip), vehicle: saline 104 % of control

CC1(C)C=CN(c2ccc(Cl)cc2)C(=O)O1
inactive: [4] 103 % of control | [5] 97 % of control | [6] 87 % of control

CC(C)OC(=O)NN1CCCCCC1
inactive: [7] 92 % of control | [8] 105 % of control | [9] 96 % of control

O=C(Cc1ccccn1)NCC(O)c1ccccc1 (stereo not given)
inactive: dose: 100.0 mg/kg/injection, schedule: Q01DX001 (ip), vehicle: saline 110 % of control | dose: 200.0 mg/kg/injection, schedule: Q01DX001 (ip), vehicle: saline 91 % of control | dose: 400.0 mg/kg/injection, schedule: Q01DX001 (ip), vehicle: saline 93 % of control
